What was measured:
[1] = tested on: SRE reporter (FAS proximal promoter); test: SRE reporter (FAS proximal promoter-luciferase) assay in CV-1 cells; format: cell-based
Procedure: Since LXR regulates SREBP-1c expression, LXR also should regulate activities downstream of SREBP-1c. To test this, CV-1 cells were transiently transfected with as in Example 6, but with the SRE or the SREm reporter, SREBP-1c-dependent reporter constructs consisting of the FAS proximal promoter linked to the luciferase gene. […] See Wang et al., Mol. Cell 3:543-553, 1999, the disclosures of which are hereby incorporated by reference. Cells then were treated as in Example 6 with the indicated compounds, Clotrimazole or 25-hydroxycholesterol (25-OH cholesterol). 25-OH cholesterol is known to repress the synthesis of SREBP-1c and is therefore used to eliminate the effects of this transcription factor on the FAS promoter (SRE).

human LXRα = target: T1, human LXRα (Homo sapiens, UniProt Q13133); test: Full-length hLXRα/hRXRα LXREx3 TK-Luc reporter assay in transfected CV-1 cells; format: cell-based; conditions: 20 μM, 40 hours
T1 construct: expressed in transfected cells; host or cells: CV-1 cells
T1 sequence (Q13133 1-447): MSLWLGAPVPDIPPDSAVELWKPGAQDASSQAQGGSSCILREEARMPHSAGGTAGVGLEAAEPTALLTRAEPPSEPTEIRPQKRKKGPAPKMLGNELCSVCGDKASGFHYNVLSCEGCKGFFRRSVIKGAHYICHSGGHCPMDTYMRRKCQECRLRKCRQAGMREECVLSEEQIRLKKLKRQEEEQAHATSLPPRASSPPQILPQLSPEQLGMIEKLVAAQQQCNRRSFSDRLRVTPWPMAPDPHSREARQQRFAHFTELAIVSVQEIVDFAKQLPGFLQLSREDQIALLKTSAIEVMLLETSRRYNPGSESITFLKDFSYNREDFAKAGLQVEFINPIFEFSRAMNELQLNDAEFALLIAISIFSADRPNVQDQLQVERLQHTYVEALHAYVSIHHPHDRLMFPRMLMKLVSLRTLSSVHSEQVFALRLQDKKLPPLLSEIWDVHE
T1 sequence (P19793 1-462 partner): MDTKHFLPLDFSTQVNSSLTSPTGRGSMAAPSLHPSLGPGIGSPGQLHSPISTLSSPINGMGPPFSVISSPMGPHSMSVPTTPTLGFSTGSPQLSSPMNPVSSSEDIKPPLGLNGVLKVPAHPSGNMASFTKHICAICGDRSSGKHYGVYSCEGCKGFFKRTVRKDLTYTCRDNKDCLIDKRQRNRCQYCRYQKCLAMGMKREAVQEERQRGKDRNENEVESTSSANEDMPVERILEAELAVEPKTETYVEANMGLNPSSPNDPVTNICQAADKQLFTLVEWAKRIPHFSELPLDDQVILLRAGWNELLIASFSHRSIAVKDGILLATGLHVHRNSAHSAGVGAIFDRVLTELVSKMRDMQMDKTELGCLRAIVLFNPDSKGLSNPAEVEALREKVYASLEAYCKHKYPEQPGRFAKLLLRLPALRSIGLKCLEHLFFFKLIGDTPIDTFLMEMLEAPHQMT
Procedure: (§1) CV-1 cells were grown in DMEM supplemented with 10% resin-charcoal stripped fetal bovine serum, 50 U/ml penicillin G and 50 μg/ml streptomycin sulfate at 37° C. in 5% CO2. Cells were plated to 50-80% confluence one day prior to transfection using phenol red-free DMEM-FBS. The cells were transfected by lipofection using N-[1-(2,3-dioleoyloxy)propyl]-N,N,N-ammonium methyl sulfate according to manufacturer's instructions (Boehringer Mannheim).
(§2) Genes encoding the following full-length proteins, which are suitable for use in the studies described herein, were cloned into pCMX: human RXRα (Gene Bank accession X52773) and human LXRα (GenBank accession U22662). The cells were transfected with CMX-βgal and luciferase constructs. The CMX-βGal construct contained the ligand binding domain of human RXR (hRXRα) and the ligand binding domain of human LXRα (hLXRα) as indicated in FIG. 1. The luciferase reporter construct (LXREx3 TK-Luc) contained the herpes virus thymidine kinase promoter (−105/+51) linked to three copies of the response element LXRE. After transfection, the cells were treated with 20 μM of a synthetic azole test compound or vehicle alone for 40 hours in phenol red-free DMEM-FBS.

[2] = target: T2, ligand binding domain of LXRα-RXR heterodimers (Homo sapiens, UniProt Q13133); test: LXR ligand binding domain mediated activity, UASGx4 TK-Luc reporter in CV-1 cells; format: cell-based; conditions: 20 μM
T2 construct: expressed in transfected cells; host or cells: CV-1 cells
T2 sequence (Q13133 209-447 limits assumed): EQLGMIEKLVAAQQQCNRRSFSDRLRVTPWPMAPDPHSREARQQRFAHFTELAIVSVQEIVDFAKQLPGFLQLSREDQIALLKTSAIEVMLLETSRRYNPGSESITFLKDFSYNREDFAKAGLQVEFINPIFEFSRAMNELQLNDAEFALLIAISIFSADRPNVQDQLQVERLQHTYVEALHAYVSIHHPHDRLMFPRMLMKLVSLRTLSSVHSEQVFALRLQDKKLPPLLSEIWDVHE
T2 sequence (P19793 227-458 partner limits assumed): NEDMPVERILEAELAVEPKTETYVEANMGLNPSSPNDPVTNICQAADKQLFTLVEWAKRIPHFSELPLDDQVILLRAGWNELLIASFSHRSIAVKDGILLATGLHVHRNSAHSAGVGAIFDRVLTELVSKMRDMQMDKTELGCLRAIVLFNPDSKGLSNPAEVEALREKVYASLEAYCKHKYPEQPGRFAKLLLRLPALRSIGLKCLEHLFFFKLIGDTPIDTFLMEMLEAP
Procedure: as §1
as §2, with “DMEM-FBS. After exposure to the candidate antagonist compounds, cells were harvested and assayed for luciferase and β-galactosidase activity.” for “DMEM-FBS.”
The reporter gene was UASGx4 TK-Luc.

[3] = target: T3, LXRα-RXR heterodimers and receptor interaction domains of coactivator SRC1 (Homo sapiens, UniProt Q13133); test: LXR-coactivator association, VP-L-hLXRα / L-hRXRα / GAL4-SRC1 in CV-1 cells; format: cell-based; conditions: 20 μM, coactivator GAL4-SRC1, CV-1 cells
T3 construct: expressed in transfected cells; host or cells: CV-1 cells
T3 sequence (Q13133 209-447 limits assumed): T2 sequence (Q13133 209-447 limits assumed)
T3 sequence (P19793 227-458 partner limits assumed): T2 sequence (P19793 227-458 partner limits assumed)
Procedure: as §1, §2
VP-L-hLXRα contains the transactivation domain of Herpes VP16, linked to the LBD of human LXRα, L-hRXRα is the LBD of human RXRα. UASGx4 TK-Luc was the reporter gene, and the assay additionally included the coactivator GAL4-SRC1. Treatment with 20 μM azole compound as indicated was able to inhibit interactions between LXRα-RXR heterodimers and the receptor interaction domains from the coactivator SRC1.

LXRα = target: T4, LXRα (Homo sapiens, UniProt Q13133); test: Transient transfection assay Gal-hLXRα + RXR LBD, UASGx4 TK Luc reporter, CV-1 cells; format: cell-based; conditions: 10 μM; for repression of LXRα activity: approximately 40 hours, lipid-stripped serum; for less effective than Clotrimazole in repressing LXRα: relative to Clotrimazole
T4 construct: expressed in transfected cells; host or cells: CV-1 cells
T4 sequence (Q13133 209-447 limits assumed): T2 sequence (Q13133 209-447 limits assumed)
T4 sequence (P19793 227-458 partner limits assumed): T2 sequence (P19793 227-458 partner limits assumed)
Procedure: (§3) Synthetic compounds were screened in an effort to find more specific LXR inhibitors. CV-1 cells were maintained and transfected using known methods. Forman et al., Cell 81: 687-693, 1995. CV-1 cells were transiently transfected with Gal-hLXRα, the RXR LBD, the UASGx4 TK Luc reporter and CMX-β-gal as an internal control, either in standard or in lipid-stripped serum. After transfection, cells were treated for approximately 40 hours with phenol red-free DMEM-FBS containing the indicated compounds at the following concentrations: T0901317 (100 nM), Clotrimazole (10 μM), S883417(10 μM) and S100250 (10 μM), unless otherwise specified. After exposure to ligand, the cells were harvested and assayed for luciferase and β-galactosidase activity. The luciferase activity was normalized to the internal β-galactosidase control (reporter activity).
(§4) The ability of these compounds to repress LXRα and LXRβ was compared by transfecting CV-1 cells with either the RXR LBD alone or the RXR LBD together with either Gal-LXRα or Gal-LXRβ.
(§5) Transfections were performed as described above, with increasing concentrations of Clotrimazole.

LXRβ = target: T5, LXRβ (Homo sapiens, UniProt P55055); test: Transient transfection assay Gal-LXRβ + RXR LBD, UASGx4 TK Luc reporter, CV-1 cells; format: cell-based; conditions: 10 μM; for repression of LXRβ activity: approximately 40 hours, lipid-stripped serum; for less effective than Clotrimazole in repressing LXRβ: relative to Clotrimazole
T5 construct: expressed in transfected cells; host or cells: CV-1 cells
T5 sequence (P55055 222-460 limits assumed): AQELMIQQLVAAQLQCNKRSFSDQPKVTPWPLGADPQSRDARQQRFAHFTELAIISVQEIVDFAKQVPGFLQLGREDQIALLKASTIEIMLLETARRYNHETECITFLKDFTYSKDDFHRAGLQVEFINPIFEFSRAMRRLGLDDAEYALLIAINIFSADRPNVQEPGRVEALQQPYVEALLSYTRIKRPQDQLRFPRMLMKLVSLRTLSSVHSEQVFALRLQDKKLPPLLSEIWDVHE
T5 sequence (P19793 227-458 partner limits assumed): T2 sequence (P19793 227-458 partner limits assumed)
Procedure: as §3, §4, §5

CV-1 cells = test: Cytotoxicity in transfected CV-1 cells; conditions: T0901317 100 nM; Clotrimazole, S883417, S100250 10 μM; approximately 40 hours
Procedure: as §3

SMILES | LXRα induction of SRE reporter activity ([1]; LXRα co-transfected (3-fold increase)) | LXRβ induction of SRE reporter activity ([1]; LXRβ co-expression (almost 2-fold increase)) | activity of reporter containing mutated SRE ([1]; SREm reporter) | repression of SRE reporter ([1]; absence of LXR) [%] | antagonism of constitutive activation mediated by LXR (hLXRα activity, LXREx3 TK-Luc) (human LXRα) | inhibition of constitutive activation by the LXRα-RXR ligand binding domain (UASGx4 TK-Luc) [2] | inhibition of LXR-coactivator association [3] | repression of LXRα activity (LXRα) | less effective than Clotrimazole in repressing LXRα (LXRα) | repression of LXRβ activity (LXRβ) | less effective than Clotrimazole in repressing LXRβ (LXRβ) | cytotoxicity (CV-1 cells)
C[C@H](CCCC(C)(C)O)[C@H]1CC[C@H]2[C@@H]3CC=C4C[C@@H](O)CC[C@]4(C)[C@H]3CC[C@]12C [25-OH cholesterol, 25-hydroxycholesterol] | prevented this induction | prevented this induction | no significant effects | 50 | – | – | – | – | – | – | – | –
c1ccc(-c2cncn2C(c2ccccc2)(c2ccccc2)c2ccccc2)cc1 [S100250] | – | – | – | – | antagonize the constitutive activation mediated by LXR | inhibit constitutive activation | inhibition of LXR-coactivator association | repressed | approximately 50% | repressed | approximately 50% | No cytotoxicity
Cl.FC(F)(F)c1cccc(C(c2ccccc2)(c2ccccc2)n2ccnc2)c1 [S883417] | – | – | – | – | antagonize the constitutive activation mediated by LXR | inhibit constitutive activation | inhibition of LXR-coactivator association | repressed | approximately 50% | repressed | approximately 50% | No cytotoxicity

— US20050009837A1, “Modulators of lipid metabolism and methods of use” (City of Hope, priority 2003, published 2005)
